Test results reported in patent US20080081053A1, “Treatment Method” (priority 2004, published 2008).

System: advanced AML
Assay: Phase 2 clinical study in patients with advanced AML
Format: in vivo, human
Conditions: for %myeloblasts in bone marrow: patient with HI for neutrophils, 36% at baseline
Protocol: In a Phase 2 clinical study, 24 patients, 18 years or older, with advanced AML were treated with 12.5 mg AP23573 as a 30-minute intravenous infusion daily for 5 days every-2-weeks (QDX5, daily). The majority of patients enrolled in this trial had aggressive disease and received AP23573 study treatment as at least a 3rd line treatment regimen. Responses were assessed at the end of each cycle (4 weeks of study treatment). At the end of one cycle, two patients had Hematologic Improvement (HI), including erythroid and neutrophil minor responses. […] Six patients were stable at the end of Cycle 1 (neither response nor disease progression).
The criteria for observed responses were as follows: • a Minor Response for erythroid HI: for patients with pre-dosing hemoglobin less than 11 g/dL, […] increase in hemoglobin; for RBC transfusion-dependnt patients, 50% decrease in transfusion requirements • a Minor Response for neutrophil HI: for ANC less than 1.5×10^9 before dosing, ANC increase of at least 100%, but absolute increase less than 1.5×10^9 • Stable Disease/no response: no significant change since baseline (neither response nor progression criteria were met) • Progressive Disease: One of the following: a 50% or greater decrement from maximum response levels in graunulocytes or platelets, a reduction in hemoglobin concentration by at least 2 g/dL, or transfusion dependence

## CO[C@H]1C[C@@H]2CC[C@@H](C)[C@@](O)(O2)C(=O)C(=O)N2CCCC[C@H]2C(=O)O[C@H]([C@H](C)C[C@@H]2CC[C@@H](OP(C)(C)=O)[C@H](OC)C2)CC(=O)[C@H](C)/C=C(\C)[C@@H](O)[C@@H](OC)C(=O)[C@H](C)C[C@H](C)/C=C/C=C/C=C/1C [AP23573]
24 patients with advanced AML, 12.5 mg, 30-minute i.v. infusion daily for 5 days every 2 weeks (QDX5), at the end of one cycle (4 weeks)
  patients with Hematologic Improvement (HI), including erythroid and neutrophil minor responses: two
24 patients with advanced AML, end of Cycle 1, 12.5 mg i.v. QDX5
  patients stable (neither response nor disease progression): Six
At Cycle 2, 12.5 mg i.v. QDX5
  %myeloblasts in bone marrow: 15%
End of Cycle 1, 12.5 mg i.v. QDX5
  %myeloblasts in bone marrow: 9%
